Laboratory results from patent publication US10857105B2, “Compounds and compositions for intracellular delivery of therapeutic agents” (ModernaTX, Inc., priority 2017, dated 2020).

Key:
[1] = test system: modified luciferase; assay: Luciferase expression in liver, lung, spleen and femur 6 hours after intravenous administration to mice; format: in vivo; settings: 6 hours after intravenous 0.5 mpk, mice
Method in brief: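 Mice (n=3) got a single 0.5 mpk IV dose of each nanoparticle composition, with MC3 and PBS controls alongside. Organ luminescence flux was read 6 h post-dose.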

[2] = test system: hEPO mRNA; assay: hEPO expression after intravenous administration to rats; format: in vivo, rat; settings: for Lipid/MC3 hEPO conc. ratio, 0.2 mpk / Lipid/MC3 hEPO conc. ratio, 2 mpk: rats, 6 hours; for Lipid/MC3 hEPO conc. ratio, 2 mpk: intravenous 2 mpk; for hEPO expression: intravenous, 6 h, 2 mpk
Method: The expression of hEPO and cytokine induction in rats intravenously administered a nanoparticle composition at a dose of 2.0 mpk was measured at 6 h.
(§1) The expression of hEPO in rats intravenously administered a nanoparticle composition at a dose of 0.2 mpk or 2.0 mpk was measured at 6 hours. Table 16 summarize the ratio of hEPO expression levels using various nanoparticle compositions as compared to the hEPO expression level using MC3 formulation and the lipid levels in the liver measured 48 hours after administration, as described above. Tables 17 and 18 summarize the lipid levels in the liver and spleen measured 48 hours after administration of Compounds 28, 33, 53, and 54. Liver and spleen levels represent the average values calculated for 3 rats in each group. As is shown in Tables 17 and 18, less than 10% of Compounds 28, 33, 53, and 54 remained in the liver after 48 hours, while greater than 60% of MC3 remained.
(§2) Table 19A summarizes the hEPO expression, IP-10 induction, liver and spleen levels, and alanine aminotransferase (ALT) and aspartate aminotransferase (AST) measured upon intravenous administration of formulations including Compounds 48, 49, and 50 to rat at 0.2 and 2 mpk and hEPO mRNA. hEPO concentrations were measured 6 hours after administration, while cytokine induction and liver and spleen levels were measured 48 hours after administration. hEPO and IP-10 concentrations are presented in pg/ml, while liver levels are provided in ng/g. ALT and AST levels are presented in international units.
The expression of hEPO induced by intravenous administration to rats of nanoparticle compositions at various doses was measured at 2, 4, 6, 8, 24, and 48 hour time points. FIGS. 3-6 respectively summarize the hEPO expression measured upon intravenous administration of formulations including Compounds 26, 18, 25, and MC3 to rat at various doses. The lipid levels of Compound 26 in the liver after 48 hours were about 19%.
(§3) The expression of hEPO and lipid levels in the liver and spleen in rats intravenously administered a nanoparticle composition at a dose of 0.2 mpk was measured at various time points. Compounds 18 and 25 were selected for comparison with MC3. Lipids were formulated according to the standard MC3 formulation described above. Rats were administered intravenously a single 0.2 mpk dose and expression monitored at 0.25, 0.5, 1, 2, 4, 8, 24, and 48 hours after administration.

[3] = Residual lipid levels in rat liver and spleen (UPLC-MS); format: in vivo; settings: rats, 2 mpk, 48 h; assuming 300 g rat and 15 g liver
Method: At 48 h liver tissue was harvested for lipid quantification. To pre-weighed tissues, Milli-Q water was added (900 μL water per 100 mg tissue). Tissues were homogenized using an Omni probe homogenizer until uniform. 50 μL of samples and matrix calibration standards were aliquoted into a 96-well plate. 50 μL of blank matrix for matrix blanks and control blanks were aliquoted. 400 μL IS spiking solution were manually added to all samples except matrix blanks. 400 μL of 50:50 ACN:IPA were manually added to matrix-blanks. The plate was covered and the samples vortexed and centrifuged for 5 minutes at >3000 rpm. 200 μL of the samples were transferred into a clean 96-well plate for analysis. Samples were analyzed on a Waters Acquity UPLC using a Higgins Analytical Clipeus C8 column ([…], 30×2.1 mm) and a gradient of either 70-95% or 60-95% (Mobile Phase A: 5 mM ammonium formate in 50:50:1 H2O:MeOH:formic acid; Mobile Phase B: 5 mM ammonium formate in 100:1 MeOH:formic acid) over 1.3 min at […] (column temperature 55° C.). Detection was based on electrospray ionization (ESI) in positive mode using a Sciex API5500 Mass Spectrometer.
as §1, §2, §3

[4] = test system: IL-6, IP-10; assay: Cytokine induction (IL-6, IP-10) in mice 6 hours after intravenous administration; format: in vivo; parameters: unit not given here; settings: intravenous 0.5 mpk
Method in brief: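 IL-6 and IP-10 concentrations determined 6 hours after a single intravenous 0.5 mpk dose of lipid nanoparticle formulation in mice, with MC3 and PBS as comparators.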

| Compound | % Lipid Remaining in liver, 48 h, 2 mpk [3] [%] | Total Flux, Liver [1] | Total Flux, Lung [1] | Total Flux, Spleen [1] | Lipid/MC3 hEPO conc. ratio, 0.2 mpk ([2]; intravenous 0.2 mpk) | Lipid/MC3 hEPO conc. ratio, 2 mpk [2] | Total Flux, Femur [1] | Cytokine induction, IL-6 [4] | Cytokine induction, IP-10 [4] | hEPO expression ([2]; rat) [pg/mL] | hEPO expression, 0.25 h ([2]; rat, intravenous 0.2 mpk, 0.25 h) [pg/mL] | hEPO expression, 0.5 h ([2]; rat, intravenous 0.2 mpk, 0.5 h) [pg/mL] | hEPO expression, 1 h ([2]; rat, intravenous 0.2 mpk, 1 h) [pg/mL] | hEPO expression, 2 h ([2]; rat, intravenous 0.2 mpk, 2 h) [pg/mL] | hEPO expression, 4 h ([2]; rat, intravenous 0.2 mpk, 4 h) [pg/mL] | hEPO expression, 8 h ([2]; rat, intravenous 0.2 mpk, 8 h) [pg/mL] | hEPO expression, 24 h ([2]; rat, intravenous 0.2 mpk, 24 h) [pg/mL] | hEPO expression, 48 h ([2]; rat, intravenous 0.2 mpk, 48 h) [pg/mL] |
| --- | --- | --- | --- | --- | --- | --- | --- | --- | --- | --- | --- | --- | --- | --- | --- | --- | --- | --- |
| CCCCCCCCCOC(=O)CCCCCCCN(CCO)CCCCCCCC(=O)OC(CCCCCCCC)CCCCCCCC [Compound 18, Heptadecan-9-yl 8-((2-hydroxyethyl)(8-(nonyloxy)-8-oxooctyl)amino)octanoate] | 0.018 | 2.76E+09 | 1.25E+07 | 5.15E+07 | – | 0.81 | 4.68E+06 | 78.76 | 139.92 | 9.96e+06 | 20227 | 20743 | 194353 | 238107 | 514807 | 915320 | 412051 | 52361 |
| Nonyl 8-((6-(heptadecan-9-yloxy)-6-oxohexyl)(2-hydroxyethyl)amino) octanoate [Compound 27] | – | 2.16E+09 | 6.35E+06 | 3.78E+06 | – | – | 2.00E+06 | 161.07 | 345.56 | – | – | – | – | – | – | – | – | – |

More lines, main results first:

| % Lipid Remaining in liver, 48 h, 2 mpk [3] [%] | Compound | Total Flux, Liver [1] | Total Flux, Lung [1] | Total Flux, Spleen [1] | Lipid/MC3 hEPO conc. ratio, 0.2 mpk ([2]; intravenous 0.2 mpk) | Lipid/MC3 hEPO conc. ratio, 2 mpk [2] | Total Flux, Femur [1] | Cytokine induction, IL-6 [4] | Cytokine induction, IP-10 [4] | hEPO expression ([2]; rat) [pg/mL] | hEPO expression, 0.25 h ([2]; rat, intravenous 0.2 mpk, 0.25 h) [pg/mL] | hEPO expression, 0.5 h ([2]; rat, intravenous 0.2 mpk, 0.5 h) [pg/mL] | hEPO expression, 1 h ([2]; rat, intravenous 0.2 mpk, 1 h) [pg/mL] | hEPO expression, 2 h ([2]; rat, intravenous 0.2 mpk, 2 h) [pg/mL] | hEPO expression, 4 h ([2]; rat, intravenous 0.2 mpk, 4 h) [pg/mL] | hEPO expression, 8 h ([2]; rat, intravenous 0.2 mpk, 8 h) [pg/mL] | hEPO expression, 24 h ([2]; rat, intravenous 0.2 mpk, 24 h) [pg/mL] | hEPO expression, 48 h ([2]; rat, intravenous 0.2 mpk, 48 h) [pg/mL] |
| --- | --- | --- | --- | --- | --- | --- | --- | --- | --- | --- | --- | --- | --- | --- | --- | --- | --- | --- |
| 7.22 | CCCCCCCCC(C)OC(=O)CCCCCCCN(CCO)CCCCCCCC(=O)OC(CCCCCCCC)CCCCCCCC (stereo not shown) [Compound 48, decan-2-yl 8-((8-(heptadecan-9-yloxy)-8-oxooctyl)(2-hydroxyethyl)amino)octanoate] | 1.08E+10 | 3.31E+07 | 3.49E+08 | 5.39 | 3.84 | – | – | – | – | – | – | – | – | – | – | – | – |
| <0.01 | CCCCCCCCCOC(=O)CCCCCCCN(CCO)CCCCCCCOC(=O)C(CCCCCCCC)CCCCCCCC [Compound 30, 7-((2-Hydroxyethyl)(8-(nonyloxy)-8-oxooctyl)amino)heptyl 2-octyldecanoate] | 2.68E+09 | 1.02E+07 | 3.55E+07 | 1.87 | 1.14 | 6.38E+06 | 152.51 | 1638.77 | 1.63e+07 | – | – | – | – | – | – | – | – |
| 14 | CCCCCCCCCN(CCO)CCCCCCCC(=O)OC(CCCCCCCC)CCCCCCCC [Compound 3, Heptadecan-9-yl 8-((2-hydroxyethyl)(nonyl)amino)octanoate] | 1.39E+10 | 4.76E+07 | 1.47E+08 | 2.41 | 1.21 | 7.36E+06 | 282.88 | 2052.87 | 1.74e+07 | – | – | – | – | – | – | – | – |
